Results published in patent publication US8097656B2, “Nitrogenated trans-stilbene analogs, method for the obtention and medical applications thereof” (Dominion Pharmakine S.L, priority 2005, dated 2012).

How the values were obtained:
MB16 cells = assay: Adhesion of IL-18-treated MB16 cells to HSE cell monolayer; assay type: cell-based, murine; settings: for Adhesion of MB16 cells treated with IL-18 to HSE cells (% adhered cells): 2.5 μM for 30 min prior to IL-18, control 24.4 ± 4, IL-18 alone 54 ± 6.0; for Increase of the percentage of adhesion of tumor cells to the HSE in response to IL-18 (in words): 2.5 μM for 30 minutes prior to IL-18
From the text: Isolation of primary murine cultures of hepatic sinusoidal endothelial (HSE) cells. The hepatic sinusoidal cells were isolated from C57BL/6J mice (males, aged 6-8 weeks) supplied by IFFA Credo (L'Arbreole, France), followed by a purification and identification of the HSE cells following the protocol described by Vidal-Vanaclocha et al. (1993) [Vidal-Vanaclocha, F., Rocha, M., Asumendi, A. & Barbera-Guillem, E. Isolation and enrichment of two sublobular compartment-specific endothelial cell subpopulations from liver sinusoids. Hepatology, 1993, 18, 328-339]. Stable primary cultures of HSE cells were obtained after seeding the cells on a type I collagen substrate (Sigma Chemicals Co, St Louis, Mo.), and the cultures were maintained in DMEM-HCO^3−, penicillin (100 U/ml), streptomycin (100 μg/ml), supplemented with 10% fetal bovine serum at 37° C. with 5% CO2 in atmosphere at 98% humidity.
MB16 cell adhesion to the monolayer of HSE cells in culture. The endothelial cells were isolated 24 hours prior to the adhesion test and were seeded on 24-well plate, maintaining them a minimum of 4 hours in serum-free medium before incubating them with DMEM in the presence or not of MC-MB16 for 8 hours. The synthesized compounds (JE2:2 see FIG. 6; JEM2:2-01 and JEM2:1-02 see FIG. 8A; YEF02, YEF03, YEF07, YEF05B, YEF07B and YEF05H see FIG. 10) were added to a 2.5 μM concentration prior to the MC-MB16. On the other hand, the MB16 cells were marked with 40 μg/ml from the fluorescent probe BCECF-AM (carboxyfluorescein, 2′,7′-bis-(2-carboxy-ethyl)-5-(6)carboxyfluorescein aminoxymethyl ester) supplied by Molecular Probes Inc. (Oregon, USA). Afterward, a washing process was performed with DMEM-HCO3−—to remove the excess fluorochromium, the number of viable cells being calculated by means of the trypan blue exclusion test and resuspended to a concentration of 2×10^5 cells/ml. Lastly, 1 ml of the MB16 cell suspension was added to each well on the primary HSE cell culture plate. The co-culture plates were incubator-incubated at 37° C. for 8 minutes. The percentage of cellular adhesion was calculated by means of the a fluorescence measurement system described by Vidal-Vanaclocha et al. (1994) [Vidal-Vanaclocha, F., Amézaga, C., Asumendi, A., Kaplanski, G. & Dinarello, C. A. Interleukin-1 receptor blockade reduces the number and size of murine B16 melanoma hepatic metastases. Cancer Research, 1994, 54, 2667-2672]. In the experiments with IL-18, the MB16 cells were incubated with 10 ng/ml of IL-18 for 4 hours prior to being marked with BCECF-AM and were adhered to the HSE cell plate. The results in the figures are given as values related to the adhesion percentages of the untreated HSE cells.

human HSC [1] = assay: Proliferation of human HSCs treated with MC-MA375; assay type: cell-based; settings: for Increase in HSC proliferation in response to MC-A375 (in words): 12.5 μM 30 min prior to MC-A375; for Proliferation of human HSC's treated with MC-MA375 (No. cells per well): 12.5 μM, 30 min before MC-MA375, 48 h, control 2550 ± 22, treatment alone 4400 ± 30
Experimental: (§1) isolation of primary human cultures of hepatic sinusoidal endothelial (HSE) hepatic stellate cells (HSCs). The primary cultures of human HSE and HSC cells were obtained by non-tumoral hepatic tissue serial profusion with collagenase and pronase solutions, followed by Nycodenz gradient and seeded on 24-well plates (0.5×10^4 cells/cm^2) in DMEM. supplemented with 10% FBS.
HSC proliferation test. Primary cultured human HSC cultures were seeded (2500 cells/well/200 μl) in DMEM with 10% FBS. Once adhered, they were washed to remove the FBS and were incubated with fresh medium in the presence or absence of 12.5 μM of the azaresveratrol compound (see Table 3). Thirty (30) minutes later, conditioned media obtained from MA375 cells were added to some wells, and the plates were incubated for 48 hours in humid incubator at 37° C. with 5% CO2. Upon completion of the incubation time, the cells were fixed and were processed for counting just as previously described hereinabove.

MA375 cells = assay: In vitro proliferation of MA375 cells in response to human HSC soluble factors; assay type: cell-based; settings: for Increase in proliferation of A375 cells by MC-CEH (in words): 2.5 μM for 30 minutes before MC-CEH, 48 hours; for Proliferation of MA375 cells in response to human HSC soluble factors (No. cells per well): 2.5 μM, 30 min before HSC-conditioned media, 48 h, control 9000 ± 60, treatment alone 17500 ± 50
Experimental: Culture of B16 (MB16) and A375 (MA375) melanoma cells. The MB 16 (B16F10 subline) murine tumor cells were cultured at 37° C., with 5% CO2 atmosphere in Dulbecco's modified Eagle's medium (DMEM)-HCO3 penicillin (100 U/ml), streptomycin (100 μg/ml), supplemented with 5% fetal bovine serum and adjusted to pH 7.4. The cells were maintained and subcultured according to the method described by Vidal-Vanaclocha et al. (1994) [Vidal-Vanaclocha, F., Amézaga, C., Asumendi, A., Kaplanski, G. & Dinarello, C. A. Interleukin-1 receptor blockade reduces the number and size of murine B16 melanoma hepatic metastases. Cancer Research, 1994, 54, 2667-2672]. The conditioned media were obtained from subconfluyent cultures maintained in absence of FBS for 24 hours.
In vitro Melanoma cell proliferation test. The MB16 or MA375 cells are seeded (2500 cells/well/200 μl) in DMEM medium (Dulbecco's modified Eagle's medium) with 10% fetal bovine serum (FBS). Once adhered, they were washed to remove the FBS and fresh medium was added in the presence or absence of 2.5 μM of the compounds to be tested. In the experiments with MA375, the compound azaresveratrol (see Table 4) was used, and in the experiments with MB16 cells, the compounds azaresveratrol, JE1:2, JE2:1 or JE2:2 (see FIG. 3) were used. Thirty (30) minutes later, 10 ng/ml of IL-18 or HSC-conditioned media (murines in the case of B16 and human ones in the case of A375) were added to some wells, and the plates were incubated for 48 hours at 37° C. with 5% CO2 Upon completion of the incubation period, the cells were fixed with […] for 1 hours, were washed and were allowed to dry in the incubator at 50° C. for 30 minutes. In following, 100 μl/well of sulforhodamine 101 (0.4% p/v) was added and they were incubated at room temperature in the dark for 30 minutes. After washing, 200 μl/well of Tris base 10 mM pH 10.5 was added and the fluorescence was measured by means of a 530 nm, 620 nm emission excitation filter plate fluorescence reader. The number of cells was calculated by extrapolating said fluorescence data on a standard straight line previously obtained based on the fluorescence emitted in an increasing number of cells.

human HSC [2] = assay: Migration of human HSCs treated with MC-MA375 (modified Boyden chamber); assay type: cell-based; settings: for Increase in migration of HSC induced by MC-A375 (in words): 12.5 μM 30 min prior to MC-A375; for Migration of human HSC's treated with MC-MA375 (No. cells migrated per field): 12.5 μM, 30 min before MC-MA375, 4 h, control 10.0 ± 4, treatment alone 91.5 ± 19
From the text: as §1
Human HSC and HSE cell migration tests (see Table 3). Primary cultured hepatic endothelial cells (25×10^5) or hepatic stellate cells (2×10^4) were seeded in the upper compartment of modified Boyden chambers equipped with a polycarbonate filter of an 8 μm pore size. Some cells were incubated in the presence or absence of 12.5 μM of azaresveratrol, 30 minutes prior to adding conditioned tumor medium. Twenty-four (24) hours later (in the case of the endothelial cells) or 4 hours later (in the case of hepatic star cells) the number of cells having passed through the membrane was determined. The cells were fixed, were stained with hematoxylin eosine and were counted under the microscope (20×) in 5 fields per well.

Compound	Adhesion of MB16 cells treated with IL-18 to HSE cells (% adhered cells) (MB16 cells)	Increase of the percentage of adhesion of tumor cells to the HSE in response to IL-18 (in words) (MB16 cells)	Increase in HSC proliferation in response to MC-A375 (in words) (human HSC [1])	Proliferation of human HSC's treated with MC-MA375 (No. cells per well) (human HSC [1])	Increase in proliferation of A375 cells by MC-CEH (in words) (MA375 cells)	Proliferation of MA375 cells in response to human HSC soluble factors (No. cells per well) (MA375 cells)	Increase in migration of HSC induced by MC-A375 (in words) (human HSC [2])	Migration of human HSC's treated with MC-MA375 (No. cells migrated per field) (human HSC [2])
Oc1ccc(/N=C/c2cc(O)cc(O)c2)cc1 [azaresveratrol, 5-((E)-(4-Hydroxyphenylimino)methyl)benzene-1,3-diol]	31 ± 4.0	significantly (P<0.01) inhibited	abrogated	2600 ± 60	prevented	9250 ± 65	abolished	6.0 ± 1.3 No. cells migrated per field
Oc1ccc(C=Cc2cc(O)cc(O)c2)cc1 [resveratrol, reference compound]	30 ± 4.0	significantly (P<0.01) inhibited	abrogated	2250 ± 100	prevented	9050 ± 100	abolished	6.5 ± 1.4 No. cells migrated per field
